Columns and labels:
Cell line [1] = test: Antioxidant activity on copper-induced peroxidation in low-density lipoprotein at 20 uM; expressed as area of absorbance/mm; type: functional, Homo sapiens
Cell line [2] = test: Antioxidant activity on copper-induced peroxidation in low-density lipoprotein at 10 uM; expressed as area of absorbance/mm; type: functional, Homo sapiens
Cell line [3] = test: Effect of compound (1 uM) on macrophage-mediated oxidation of LDL was measured by MDA levels in the presence of Cu2+; type: functional, Homo sapiens
Cell line [4] = test: Concentration required for inhibition of Cu+2-induced peroxidation in low-density lipoprotein of human; type: functional, cell-based
Cell line [5] = test: Effect of compound (0.1 uM) on macrophage-mediated oxidation of LDL was measured by MDA levels in the presence of Cu2+; type: functional, Homo sapiens

Row | IC50 (Cell line [4]) [µM] | SMILES | Activity (Cell line [1]) [AU/mm] | Activity (Cell line [2]) [AU/mm] | Activity (Cell line [3]) [nmol/mg LDL] | Activity (Cell line [5]) [nmol/mg LDL]
1 | 2.8 | CC(C)(Sc1cc(C(C)(C)C)c(O)c(C(C)(C)C)c1)Sc1cc(C(C)(C)C)c(O)c(C(C)(C)C)c1 [PROBUCOL] | 6.7 | 4.32 | 412.6 | –
2 | 3.8 | C/C=C/c1ccc(O[C@@H](C)[C@@H](O)c2ccc(O)c(OC)c2)c(OC)c1 [MACHILIN D] | 6.78 | 5.81 | – | 118.3
3 | 3.3 | COc1ccc(C[C@H](C)[C@@H](C)Cc2cc(OC)c(O)cc2O)cc1O | 7.66 | 6.45 | – | 358.9

Reference: ChEMBL document CHEMBL1138630, “Antioxidant activities of a new lignan and a neolignan from Saururus chinensis” (Bioorg Med Chem Lett, 2004)
